Laboratory results from patent US9604998B2, “Inhibitors of the renal outer medullary potassium channel” (MERCK SHARP & DOHME CORP., priority 2013, dated 2017).

Columns and labels:
hROMK (hKir1.1) = hROMK (hKir1.1) (Homo sapiens (Human), UniProt P48048); test: Thallium Flux Assay (ROMK channel functional thallium flux, FLIPR-Tetra); assay type: cell-based; conditions: HEK293 cells stably expressing hROMK (hKir1.1); read-out: Thallium Flux IC50
Protocol: HEK293 cells stably expressing hROMK (hKir1.1) were grown at 37° C. in a 10% CO2 humidified incubator in complete growth media: Dulbecco's Modified Eagle Medium supplemented with non-essential amino acids, Penicillin/Streptomycin/Glutamine, G418 and FBS. At >80% confluency, aspirate the media from the flask and rinse with 10 mL Calcium/Magnesium-free PBS. […] To dislodge the cell, gently bang the side of the flask with your hand. Triturate the cells completely and then transfer the cells to 25 mL complete media. Centrifuge at 1,500 rpm for 6 min followed by resuspension in complete growth media and determine cell concentration.
Compound Buffer (per microplate): 20 mL Probenecid/Assay Buffer; 0.3 mM ouabain (10 mM ouabain in water can be stored in amber bottle/aluminum foil at room temperature); Test compound
Stimulant Buffer (prepared at 5× final concentration in 1× FluxOR™ Chloride-Free Buffer): 7.5 mM Thallium sulfate and […] (to give a final assay concentration of 3 mM Thallium/0.3 mM Potassium). Store at 4° C. when not in use. If kept sterile, this solution is good for months.
The ROMK channel functional thallium flux assay is performed in 384 wells, using the FLIPR-Tetra instrument. HEK-hKir1.1 cells are seeded in Poly-D-Lysine microplates and kept in a 37° C.-10% CO2 incubator overnight. On the day of the experiment, the growth media is replaced with the FluxOR™ reagent loading buffer and incubated, protected from light, at ambient temperature (23-25° C.) for 90 min. The loading buffer is replaced with assay buffer±test compound followed by 30 min incubation at ambient temperature, where the Thallium/Potassium stimulant is added to the microplate.
1. Seed HEK-hKir1.1 cells (50 μl at 20,000 cells/well) in 384-well PDL coated Microplates
2. Allow cells to adhere overnight in humidified 37° C./10% CO2 incubator
3. Completely remove cell growth media from microplate and replace with 25 μl loading buffer
4. Incubate Microplate at room temperature, protected form light, for 90 min
5. Remove loading buffer and replace with 25 μl 1× Assay Buffer±test compound.
6. Incubate microplate at room temperature, protected from light, for 30 min
7. […] Excitation=400 nm, Emission=460 & 580 nm. Collect data for ˜10 min.
The fluorescence intensity of wells containing 3 μM of a standard control ROMK inhibitor of the present invention is used to define the ROMK-sensitive component of thallium flux. Fluorescence in the presence of test compounds is normalized to control values to provide % fluorescence change.

Kir1.1 (ROMK1) = Kir1.1 (ROMK1) (Homo sapiens (Human), UniProt P48048); test: Electrophysiology Assay (whole cell voltage clamp, IonWorks Quattro); assay type: cell-based; conditions: Chinese hamster ovary cells stably expressing Kir1.1; block during voltage step to 0 mV; read-out: Electrophysiology IC50
Chain of Kir1.1 (ROMK1) (P48048 whole entry, species assumed): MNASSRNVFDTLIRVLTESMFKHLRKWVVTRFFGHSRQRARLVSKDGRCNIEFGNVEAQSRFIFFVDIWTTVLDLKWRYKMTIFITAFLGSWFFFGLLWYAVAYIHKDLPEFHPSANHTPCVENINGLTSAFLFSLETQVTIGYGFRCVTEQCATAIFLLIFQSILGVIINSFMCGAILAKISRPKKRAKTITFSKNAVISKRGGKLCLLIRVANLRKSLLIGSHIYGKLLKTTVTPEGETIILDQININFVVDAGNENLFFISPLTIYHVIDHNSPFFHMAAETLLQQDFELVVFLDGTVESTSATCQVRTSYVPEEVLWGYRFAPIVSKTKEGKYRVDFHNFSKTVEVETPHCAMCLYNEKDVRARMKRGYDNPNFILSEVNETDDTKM
Protocol: Chinese hamster ovary cells stably expressing Kir1.1 channels were maintained in T-75 flasks in cell culture media in a humidified 10% CO2 incubator at 37° C. Prior to an experiment, Kir1.1 expression was induced by overnight incubation with 1 mM sodium butyrate. […] After centrifugation, the cell pellet was resuspended in approximately 4.0 mL of bath solution and placed in the IonWorks instrument. The intracellular solution consisted of (in mM): 80 K gluconate, 40 KCl, 20 KF, 3.2 MgCl2, 3 EGTA, 5 Hepes, pH 7.4. Electrical access to the cytoplasm was achieved by perforation in 0.13 mg/mL amphotericin B for 4 min. […] Voltage protocols and current recordings were performed using the IonWorks HT software/hardware system. Currents were sampled at 1 kHz. No correction for liquid junction potentials was used. The test pulse, consisting of a 100 ms step to 0 mV from a holding potential of −70 mV, followed by a 100 ms voltage ramp from −70 mV to +70 mV, was applied before and after a 6 min compound incubation period. Test compounds were prepared by diluting DMSO stock solutions into the bath solution at 3× the final concentration and placed in the instrument in 96-well polypropylene plates. Current amplitudes were measured using the IonWorks software.

Chain of hROMK (hKir1.1) (P48048 whole entry): as the sequence (P48048 whole entry, species assumed) above

Cc1c([C@@H]2CN3CCN(CC(O)c4cc(F)c(C#N)c(F)c4)C[C@H]3CO2)ccc2c1COC2=O (stereo partly drawn) [Example 38, (3R,9aS)-8-[2-(4-cyano-3,5-difluorophenyl)-2-hydroxyethyl]-3-(4-methyl-1-oxo-1,3-dihydro-2-benzofuran-5-yl)octahydropyrazino[2,1-c][1,4]oxazin-5-ium chloride]
IC50 (hROMK (hKir1.1)): 440 nM
IC50 (Kir1.1 (ROMK1)): 120 nM

COc1cc(C(O)CN2CCN3C[C@@H](c4ccc5c(c4C)COC5=O)OC[C@@H]3C2)cc(F)c1C#N (stereo partly drawn) [Example 48, (3R,9aS)-8-[2-(4-cyano-3-fluoro-5-methoxyphenyl)-2-hydroxyethyl]-3-(4-methyl-1-oxo-1,3-dihydro-2-benzofuran-5-yl)octahydropyrazino[2,1-c][1,4]oxazin-5-ium chloride]
IC50 (hROMK (hKir1.1)): 220 nM
IC50 (Kir1.1 (ROMK1)): 210 nM

Cc1c([C@@H](O)CN2CCN3C[C@@H](c4cc(F)c(C#N)c(F)c4)OC[C@@H]3C2)ccc2c1COC2=O [Example 52, (3R,9aS)-3-(4-cyano-3,5-difluorophenyl)-8-[(2R)-2-hydroxy-2-(4-methyl-1-oxo-1,3-dihydro-2-benzofuran-5-yl)ethyl]octahydropyrazino[2,1-c][1,4]oxazin-8-ium chloride]
IC50 (hROMK (hKir1.1)): 410 nM
IC50 (Kir1.1 (ROMK1)): 100 nM

COc1cc([C@H]2CN3CCN(C[C@H](O)c4ccc5c(c4C)COC5=O)C[C@@H]3CO2)cc(F)c1C#N [Example 53, (3S,9aR)-3-(4-cyano-3-fluoro-5-methoxyphenyl)-8-[(2R)-2-hydroxy-2-(4-methyl-1-oxo-1,3-dihydro-2-benzofuran-5-yl)ethyl]octahydropyrazino[2,1-c][1,4]oxazin-8-ium chloride]
IC50 (hROMK (hKir1.1)): 240 nM
IC50 (Kir1.1 (ROMK1)): 80 nM

Cc1c([C@@H](O)CN2CCN3C[C@H](c4ccc5c(c4C)COC5=O)SC[C@@H]3C2)ccc2c1COC2=O [Example 55, 5-{(3S,9aS)-8-[(2R)-2-hydroxy-2-(4-methyl-1-oxo-1,3-dihydro-2-bcnzofuran-5-yl)ethyl]octahydropyrazino[2,1-c][1,4]thiazin-3-yl}-4-methyl-2-benzofuran-1(3H)-one]
IC50 (hROMK (hKir1.1)): 330 nM
IC50 (Kir1.1 (ROMK1)): 90 nM

COc1cc(CCN2CCN3C[C@@H](c4ccc5c(c4C)COC5=O)OC[C@@H]3C2)ccc1C#N [Example 56, 2-methoxy-4-(2-((3R,9aS)-3-(4-methyl-1-oxo-1,3-dihydroisobenzofuran-5-yl)hexahydropyrazino[2,1-c][1,4]oxazin-8(1H)-yl)ethyl)benzonitrile]
IC50 (hROMK (hKir1.1)): 40 nM
IC50 (Kir1.1 (ROMK1)): 70 nM

Cc1c(CCN2CCN3C[C@@H](c4ccc5c(c4C)COC5=O)OC[C@@H]3C2)ccc2c1COC2=O [Example 57, 4-Methyl-5-((3R,9aS)-8-(2-(4-methyl-1-oxo-1,3-dihydroisobenzofuran-5-yl)ethyl)octahydropyrazino[2,1-c][1,4]oxazin-3-yl)isobenzofuran-1(3H)-one]
IC50 (hROMK (hKir1.1)): 30 nM
IC50 (Kir1.1 (ROMK1)): 90 nM

COc1cc(CCN2CCN3C[C@H](c4ccc5c(c4C)COC5=O)OC[C@H]3C2)ccc1C#N [Example 61]
IC50 (hROMK (hKir1.1)): 330 nM
IC50 (Kir1.1 (ROMK1)): 120 nM

O=C1OCc2cc(CCN3CCN4C[C@H](c5ccc6c(c5)COC6=O)OC[C@@H]4C3)ccc21 [Example 63]
IC50 (hROMK (hKir1.1)): 230 nM
IC50 (Kir1.1 (ROMK1)): 40 nM

Cc1c([C@@H]2CN3CCN(CCc4ccc5c(c4)COC5=O)C[C@H]3CO2)ccc2c1COC2=O [Example 64]
IC50 (hROMK (hKir1.1)): 40 nM
IC50 (Kir1.1 (ROMK1)): 40 nM

Cc1c([C@H]2CN3CCN(CCc4ccc5c(c4)COC5=O)C[C@H]3CO2)ccc2c1COC2=O [Example 65]
IC50 (hROMK (hKir1.1)): 170 nM
IC50 (Kir1.1 (ROMK1)): 110 nM

Cc1c([C@H]2CN3CCN(CC(C)c4ccc5c(c4)COC5=O)C[C@H]3CO2)ccc2c1COC2=O (stereo partly shown) [Example 66]
IC50 (hROMK (hKir1.1)): 170 nM
IC50 (Kir1.1 (ROMK1)): 140 nM

Cc1c(CCN2CCN3C[C@@H](c4ccc5c(c4)COC5=O)OC[C@@H]3C2)ccc2c1COC2=O [Example 69]
IC50 (hROMK (hKir1.1)): 60 nM
IC50 (Kir1.1 (ROMK1)): 20 nM

Cc1c(CCN2CCN3C[C@H](c4ccc5c(c4)COC5=O)OC[C@@H]3C2)ccc2c1COC2=O [Example 70]
IC50 (hROMK (hKir1.1)): 120 nM
IC50 (Kir1.1 (ROMK1)): 30 nM

COc1cc([C@@H]2CN3CCN(CCc4ccc5c(c4C)COC5=O)C[C@H]3CO2)ccc1C#N [Example 71]
IC50 (hROMK (hKir1.1)): 110 nM
IC50 (Kir1.1 (ROMK1)): 200 nM

Cc1c(CCN2CCN3C[C@@H](c4ccc(F)c(C#N)c4)OC[C@@H]3C2)ccc2c1COC2=O [Example 72]
IC50 (hROMK (hKir1.1)): 150 nM
IC50 (Kir1.1 (ROMK1)): 160 nM

Cc1c(CCN2CCN3C[C@@H](c4ccc5c(c4)CCOC5=O)OC[C@@H]3C2)ccc2c1COC2=O [Example 73]
IC50 (hROMK (hKir1.1)): 570 nM
IC50 (Kir1.1 (ROMK1)): 300 nM

COc1cc([C@H]2CN3CCN(CCc4ccc5c(c4C)COC5=O)C[C@@H]3CO2)ccc1C#N [Example 75]
IC50 (hROMK (hKir1.1)): 110 nM
IC50 (Kir1.1 (ROMK1)): 70 nM

COc1cc([C@@H]2CN3CCN(CCc4ccc5c(c4C)COC5=O)C[C@@H]3CO2)ccc1C#N [Example 76]
IC50 (hROMK (hKir1.1)): 440 nM
IC50 (Kir1.1 (ROMK1)): 90 nM

Cc1c([C@H]2CN3CCN(CCc4ccc5c(c4C)COC5=O)C[C@H]3CO2)ccc(F)c1C#N [Example 79]
IC50 (hROMK (hKir1.1)): 270 nM
IC50 (Kir1.1 (ROMK1)): 70 nM

Cc1c([C@@H]2CN3CCN(CCc4ccc5c(c4C)COC5=O)C[C@H]3CO2)ccc(F)c1C#N [Example 80]
IC50 (hROMK (hKir1.1)): 60 nM
IC50 (Kir1.1 (ROMK1)): 50 nM

Cc1c([C@@H]2CN3CCN(CCc4ccc5c(c4)CC(C)OC5=O)C[C@H]3CO2)ccc2c1COC2=O (stereo partly shown) [Example 81]
IC50 (hROMK (hKir1.1)): 90 nM
IC50 (Kir1.1 (ROMK1)): 120 nM

COc1c(C#N)ccc(CCN2CCN3C[C@@H](c4ccc5c(c4C)COC5=O)OC[C@@H]3C2)c1C [Example 82]
IC50 (hROMK (hKir1.1)): 60 nM
IC50 (Kir1.1 (ROMK1)): 80 nM

CCOc1cc(CCN2CCN3C[C@@H](c4ccc5c(c4C)COC5=O)OC[C@@H]3C2)ccc1C#N [Example 83]
IC50 (hROMK (hKir1.1)): 120 nM
IC50 (Kir1.1 (ROMK1)): 90 nM

Cc1c([C@@H]2CN3CCN(CCc4ccc5c(c4)C[C@H](C)OC5=O)C[C@H]3CO2)ccc2c1COC2=O [Example 86]
IC50 (hROMK (hKir1.1)): 80 nM
IC50 (Kir1.1 (ROMK1)): 80 nM

Cc1c([C@@H]2CN3CCN(CCc4ccc5c(c4)C[C@@H](C)OC5=O)C[C@H]3CO2)ccc2c1COC2=O [Example 87]
IC50 (hROMK (hKir1.1)): 110 nM
IC50 (Kir1.1 (ROMK1)): 50 nM

Cc1c([C@@H]2CN3CCN(CCc4ccc5c(c4)C[C@H](C)OC5=O)C[C@H]3CO2)ccc(F)c1C#N [Example 88]
IC50 (hROMK (hKir1.1)): 190 nM
IC50 (Kir1.1 (ROMK1)): 50 nM

Cc1c(CCN2CCN3C[C@H](c4ccc5c(c4Cl)COC5=O)OC[C@@H]3C2)ccc2c1COC2=O [Example 89]
IC50 (hROMK (hKir1.1)): 200 nM
IC50 (Kir1.1 (ROMK1)): 100 nM

Cc1c(C(C)CN2CCN3C[C@@H](c4ccc5c(c4C)COC5=O)OC[C@@H]3C2)ccc2c1COC2=O (stereo partly shown) [Example 90]
IC50 (hROMK (hKir1.1)): 110 nM
IC50 (Kir1.1 (ROMK1)): 230 nM

Cc1c([C@@H]2CN3CCN(CCc4ccc5c(c4Br)COC5=O)C[C@H]3CO2)ccc2c1COC2=O [Example 91]
IC50 (hROMK (hKir1.1)): 90 nM
IC50 (Kir1.1 (ROMK1)): 210 nM

Cc1c([C@@H]2CN3CCN(CCc4ccc(-n5cnnn5)nc4)C[C@H]3CO2)ccc(F)c1C#N [Example 92]
IC50 (hROMK (hKir1.1)): 270 nM
IC50 (Kir1.1 (ROMK1)): 80 nM

Cc1c([C@H]2CN3CCN(CCc4ccc(-n5cnnn5)nc4)C[C@H]3CO2)ccc(F)c1C#N [Example 93]
IC50 (hROMK (hKir1.1)): 80 nM
IC50 (Kir1.1 (ROMK1)): 80 nM
